The record followed here is patent publication US9018162B2, “Methods for rapidly treating severe hypoglycemia” (Xeris Pharmaceuticals, Inc., priority 2013, dated 2015).

A short description of series [1]: Freezing point depression of DMSO solutions by DSC. The class given is physicochemical. The conditions noted are these: DSC scan. As to the method: Using PerkinElmer Instruments PYRIS Diamond Differential Scanning calorimetry (“DSC”), samples were cooled to −40° C. and heated to 40° C. at 8° C. per minute for screening purposes.
In general terms: Differential scanning calorimetry records heat flow against a reference as temperature is scanned.

Series [2] is described as follows: Effect of pH on insulin solubility in DMSO (visual, A630). The class given is physicochemical. The conditions noted are these: pH memory of 7, some lower-concentration solutions e.g. 10 mg/mL. As to the method:
These solutions were lyophilized to dryness ([…]) using a conservative cycle and reconstituted to various nominal concentrations in DMSO. Solubility was measured by visual inspection for clarity and turbidity via A630.

In the case of `C[S+](C)[O-]` [neat DMSO, dimethylsulfoxide], in series [1], the “temperature of crystallization (Tc)” value is around 18 °C.
In the case of insulin, the “period to slowly dissolve to a clear solution” value in series [2] is reported as “about 24 hours”.
